{"source": "patent US20220305093A1", "about": "“NK-LYSIN PEPTIDE COMPOSITIONS AND METHODS FOR THEIR USE AS ANTIMICROBIAL/ANTIVIRAL AGENTS” (priority 2021, published 2022)", "key": {"[1]": {"test_system": "gram-positive and gram-negative bacteria", "assay": "organism not typed", "description": "The gram-positive bacterial strains utilized were Streptococcus pyogenes (ATCC 19615) and Streptococcus mutans (isolate obtained from a patient at King Abdul-Aziz hospital). The gram-negative bacterial strains used included Salmonella typhimurium (ATCC 14028), Escherichia coli (ATCC 11775), Pseudomonas aeruginosa (ATCC 9027), Klebsiella oxytoca (ATCC 49131), Shigella sonnei (ATCC 25931), and Klebsiella pneumoniae (patient isolate). Tryptic soy broth (TSB) was used to grow all bacterial strain overnight, after which the bacteria were washed using phosphate-buffered saline (PBS, NaCl 8 g/L, KCl 0.2 g/L, Na2HPO4 1.4 g/L, KH2PO4 0.24 g/L), and then diluted in the same buffer with 1/1000 TSB to an OD600 nm of 0.08-0.1 (1×10^8) colony-forming units (CFU)/ml, which was determined after performing retrospective plate counts on tryptic soy agar. Unless otherwise noted, the experiments in the following examples employed this inoculum preparation apart from when minimum inhibitory and bactericidal concentrations were determined, which employed cells in Muller Hinton broth. […]\nMueller Hinton broth (MHB) comprising 0.01% v/v acetic acid (Sigma Aldrich; St Louis, Mo.) and 0.2% w/v bovine serum albumin (Sigma Aldrich). […] The treated plates were incubated at […] and optical densities were determined for each well at 0 minutes, 1, 2 and 3 hours and after an overnight incubation. […]"}, "[2]": {"test_system": "Salmonella typhimurium (ATCC 14028)", "assay": "microbe, parasite or virus in culture", "settings": "Salmonella enterica", "experimental": "(§1) The minimum inhibitory concentration (MIC) is defined as the lowest concentration of an antimicrobial ingredient or agent that is bacteriostatic (prevents the visible growth of bacteria).\n(§2) Mueller Hinton broth (MHB) comprising 0.01% v/v acetic acid (Sigma Aldrich; St Louis, Mo.) and 0.2% w/v bovine serum albumin (Sigma Aldrich). Equal concentrations of bacteria were plated in wells of standard tissue culture microplates at a density of 0.5×10^8 CFU ml^−1 in MHB per well. Treatments were equivalent volumes (50 μl) of NK-lysin peptides in concentrations of 0 to 150 μg/ml, or no NK-lysin peptides for control wells. The treated plates were incubated at […] and optical densities were determined for each well at 0 minutes, 1, 2 and 3 hours and after an overnight incubation."}, "[3]": {"test_system": "Klebsiella oxytoca (ATCC 49131)", "assay": "microbe, parasite or virus in culture", "experimental": "as §1, §2"}, "[4]": {"test_system": "Klebsiella pneumoniae (patient isolate)", "assay": "microbe, parasite or virus in culture", "experimental": "as §1, §2"}, "[5]": {"test_system": "Streptococcus mutans (isolate)", "assay": "microbe, parasite or virus in culture", "experimental": "as §1, §2"}, "[6]": {"test_system": "Shigella sonnei (ATCC 25931)", "assay": "microbe, parasite or virus in culture", "experimental": "as §1, §2"}, "[7]": {"test_system": "Pseudomonas aeruginosa (ATCC 9027)", "assay": "microbe, parasite or virus in culture", "experimental": "as §1, §2"}, "[8]": {"test_system": "Streptococcus pyogenes (ATCC 19615)", "assay": "microbe, parasite or virus in culture", "experimental": "as §1, §2"}, "[9]": {"test_system": "Escherichia coli (ATCC 11775)", "assay": "microbe, parasite or virus in culture", "settings": "Escherichia coli, ATCC11775", "experimental": "as §1, §2"}, "[10]": {"settings": "Pseudomonas aeruginosa, ATCC9027"}, "[11]": {"settings": "Streptococcus pyogenes, ATCC19615"}}}
{"smiles": "NC[C@H]1O[C@H](O[C@H]2[C@H](O)[C@@H](O[C@H]3O[C@H](CO)[C@@H](O)[C@H](N)[C@H]3O)[C@H](N)C[C@@H]2N)[C@H](O)[C@@H](O)[C@@H]1O", "note": "[Kanamycin, kanamycin, reference compound]", "values": [{"measurement": "MIC", "setting": "[1]", "result": "7.8 to 62.5", "unit": "µg/mL"}, {"measurement": "MBC", "setting": "[2]", "result": 62.5, "unit": "µg/mL"}, {"measurement": "MIC", "setting": "[2]", "result": 62.5, "unit": "µg/mL"}, {"measurement": "MIC", "setting": "[3]; K. oxytoca ATCC 49131", "result": "31.25 ± 0.00", "unit": "µg/mL"}, {"measurement": "MBC", "setting": "[3]; Klebsiella oxytoca, ATCC49131", "result": 31.2, "unit": "µg/mL"}, {"measurement": "MIC", "setting": "[3]; Klebsiella oxytoca, ATCC49131", "result": 31.2, "unit": "µg/mL"}, {"measurement": "MIC", "setting": "[4]; K.Pneumonia (isolate)", "result": "31.25 ± 0.00", "unit": "µg/mL"}, {"measurement": "MBC", "setting": "[4]; Klebsiella pneumoniae", "result": 31.2, "unit": "µg/mL"}, {"measurement": "MIC", "setting": "[4]; Klebsiella pneumoniae", "result": 31.2, "unit": "µg/mL"}, {"measurement": "MIC", "setting": "[5]; St. mutans (isolate)", "result": "62.5 ± 0.023", "unit": "µg/mL"}, {"measurement": "MBC", "setting": "[5]; Streptococcus mutans", "result": "62.5 ± 0.23", "unit": "µg/mL"}, {"measurement": "MIC", "setting": "[5]; Streptococcus mutans", "result": 62.5, "unit": "µg/mL"}, {"measurement": "MIC", "setting": "[6]; Sh. sonnei ATCC 25931", "result": "7.81 ± 0.026", "unit": "µg/mL"}, {"measurement": "MBC", "setting": "[6]; Shigella sonnei, ATCC25931", "result": "7.81 ± 0.026", "unit": "µg/mL"}, {"measurement": "MIC", "setting": "[6]; Shigella sonnei, ATCC25931, Sh. sonnei ATCC 25931", "result": 7.8, "unit": "µg/mL"}, {"measurement": "MIC", "setting": "[7]; P.aeruginosa ATCC 9027", "result": "62.5 ± 0.00", "unit": "µg/mL"}, {"measurement": "MBC", "setting": "[7]; [10]", "result": 62.5, "unit": "µg/mL"}, {"measurement": "MIC", "setting": "[7]; [10]", "result": 62.5, "unit": "µg/mL"}, {"measurement": "MIC", "setting": "[8]; St. pyogenes ATCC 19615", "result": "62.5 ± 0.00", "unit": "µg/mL"}, {"measurement": "MBC", "setting": "[8]; [11]", "result": 62.5, "unit": "µg/mL"}, {"measurement": "MIC", "setting": "[8]; [11]", "result": 62.5, "unit": "µg/mL"}, {"measurement": "MBC", "setting": "[9]", "result": 15.6, "unit": "µg/mL"}, {"measurement": "MIC", "setting": "[9]", "result": "15.62 ± 0.011", "unit": "µg/mL"}]}
